Experimental data reported in ChEMBL document CHEMBL1148133, “New diterpene glycosides of the fungus Acremonium striatisporum isolated from a sea cucumber” (J Nat Prod, 2002).
Converted amounts (≈) assume the structure as drawn.

Key:
[1] = Cytotoxicity against Strongylocentrotus intermedius developing egg; format: functional
[2] = Cytotoxicity against mouse EAC; format: functional, cell-based; conditions: Ehrlich

Question: With `C=C[C@@]1(C)CCC2=C(C1)C(=O)C[C@H]1[C@@](C)(CO[C@@H]3O[C@H](CO)[C@@H](O)[C@@H](O)[C@@H]3O)[C@@H](O)CC[C@]21C` [VIRESCENOSIDE P] as the molecule, how does the MIC [1] read?
Answer: 5 µM (≈ 2.4 µg/mL)

Question: And the IC50 [2]?
Answer: 20 µM

Question: Which IC50 [2] does the source give for `C=C[C@]1(C)C=C2[C@H](O)C[C@@H]3[C@](C)(CC[C@H](O)[C@]3(C)CO[C@@H]3O[C@H](CO)[C@@H](O)[C@@H](O)[C@@H]3O)[C@H]2CC1` [VIRESCENOSIDE O] here?
Answer: 20 µM

Question: For `C=C[C@@]1(C)CC[C@H]2C(=CC[C@@H]3[C@]2(C)CC[C@H](O)[C@]3(C)CO[C@@H]2O[C@H](CO)[C@@H](O)[C@H](O)[C@@H]2O)C1` [VIRESCENOSIDE Q], which IC50 [2] is on record?
Answer: 20 µM
